Measurements taken from PubChem BioAssay (NCI).
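Five concentrations, 48 hours, 96-well plates. GI50 is the concentration that inhibits growth by half. The concentration for full growth arrest is given as TGI.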

What was measured:
Assay in all cases: NCI tumour cell line growth inhibition, 48 h
[1] = tested on: HCT-15 colon
[2] = tested on: CAKI-1 renal
[3] = tested on: A498 renal
[4] = tested on: HCC-2998 colon
[5] = tested on: SF-295 CNS
[6] = tested on: ACHN renal
[7] = tested on: HT29 colon
[8] = tested on: HCT-116 colon
[9] = tested on: NCI/ADR-RES ovarian
[10] = tested on: M14 melanoma

CC(=O)ON1CCCC(P(=O)(OCOC(=O)C(C)(C)C)OCOC(=O)C(C)(C)C)C1=O (centres undefined) gave a GI50 [1] of 0.534 µM, a TGI [1] of 6.71 µM and a GI50 [2] of 0.712 µM. For the same molecule, the TGI [2] was 20.4 µM, the GI50 [3] was 0.314 µM and the TGI [3] was 2.01 µM. For the same molecule, the GI50 [4] was 0.803 µM, the TGI [4] was 3.5 µM and the GI50 [5] was 2.37 µM. The TGI [5] was 29 µM, the GI50 [6] was 0.596 µM and the TGI [6] was 13.5 µM. It also gave a GI50 [7] of 0.305 µM, a TGI [7] of 3.68 µM and a GI50 [8] of 0.249 µM. It also gave a TGI [8] of 4.88 µM, a GI50 [9] of 0.531 µM and a TGI [9] of 4.21 µM. For the same molecule, the GI50 [10] was 1.04 µM and the TGI [10] was 6.96 µM.

CC1(C)N=C(N)N=C(N)N1c1ccc(CCC(=O)Nc2ccc(S(=O)(=O)F)cc2)cc1 was tested, and the GI50 [1] was 3.48 µM, the TGI [1] was > 100 µM and the GI50 [2] was 2.33 µM. The TGI [2] was > 100 µM, the GI50 [3] was 5.99 µM and the TGI [3] was > 100 µM. The GI50 [4] was 3.85 µM, the TGI [4] was > 100 µM and the GI50 [5] was 4.49 µM. The TGI [5] was > 100 µM, the GI50 [6] was 7.34 µM and the TGI [6] was > 100 µM. For the same molecule, the GI50 [7] was 0.362 µM, the TGI [7] was > 100 µM and the GI50 [8] was 0.425 µM. The TGI [8] was > 100 µM, the GI50 [9] was 98.3 µM and the TGI [9] was > 100 µM. The GI50 [10] was 0.936 µM and the TGI [10] was > 100 µM.

Molecule COc1cc2c(N3CCN(C(=O)Nc4ccc(OC(C)C)cc4)CC3)ncnc2cc1OCCCN1CCCCC1 has a GI50 [1] of 16.7 µM, a TGI [1] of 36.1 µM and a GI50 [2] of 17.4 µM. The TGI [2] was > 54.9 µM, the GI50 [3] was 15 µM and the TGI [3] was 40.7 µM. It also gave a GI50 [4] of 19.6 µM, a TGI [4] of 44.3 µM and a GI50 [5] of 12.5 µM. It also gave a TGI [5] of 27.9 µM, a GI50 [6] of 20.8 µM and a TGI [6] of 55.6 µM. For the same molecule, the GI50 [7] was 6.59 µM, the TGI [7] was 26.4 µM and the GI50 [8] was 14 µM. For the same molecule, the TGI [8] was 57.3 µM, the GI50 [9] was 53.1 µM and the TGI [9] was > 100 µM. The GI50 [10] was 16.2 µM and the TGI [10] was 32.6 µM.

Work on COc1cc2c(cc1Nc1nc(N3CCc4ccccc43)c3cc[nH]c3n1)N(C(=O)CN(C)C)CC2 yielded a GI50 [1] of 1.25 µM, a TGI [1] of 2.81 µM and a GI50 [2] of 11 µM. It also gave a TGI [2] of 16.3 µM, a GI50 [3] of 8.43 µM and a TGI [3] of 14.1 µM. It also gave a GI50 [4] of 3.13 µM, a TGI [4] of 7.33 µM and a GI50 [5] of 4.79 µM. The TGI [5] was 11.8 µM, the GI50 [6] was 4.4 µM and the TGI [6] was 8.82 µM. For the same molecule, the GI50 [7] was 0.364 µM, the TGI [7] was 0.731 µM and the GI50 [8] was 1.33 µM. It also gave a TGI [8] of 2.91 µM, a GI50 [9] of 0.731 µM and a TGI [9] of 2.81 µM. It also gave a GI50 [10] of 0.6 µM and a TGI [10] of 1.51 µM.

O=C(/C=C/C12c3ccccc3C(c3ccccc31)C1C(=O)NC(=O)C12)c1ccccn1 (centres undefined) gave a GI50 [1] of 1.17 µM, a TGI [1] of 3.35 µM and a GI50 [2] of 1.66 µM. For the same molecule, the TGI [2] was 4.38 µM, the GI50 [3] was 1.66 µM and the TGI [3] was 3.15 µM. It also gave a GI50 [4] of 1.88 µM, a TGI [4] of 3.51 µM and a GI50 [5] of 1.61 µM. For the same molecule, the TGI [5] was 3.49 µM, the GI50 [6] was 2.88 µM and the TGI [6] was 10.3 µM. The GI50 [7] was 1.86 µM, the TGI [7] was 4.56 µM and the GI50 [8] was 1.42 µM. For the same molecule, the TGI [8] was 3.14 µM, the GI50 [9] was 2.81 µM and the TGI [9] was 10.1 µM. The GI50 [10] was 1.83 µM and the TGI [10] was 4.12 µM.

With CCN1C(=S)N(CC)C2C1NC(=S)N2/N=C/C=C/c1ccccc1OC (centres undefined) the GI50 [1] was 0.267 µM, the TGI [1] was > 100 µM and the GI50 [2] was 0.101 µM. For the same molecule, the TGI [2] was 45.9 µM, the GI50 [3] was 0.0831 µM and the TGI [3] was 0.715 µM. The GI50 [4] was 0.392 µM, the TGI [4] was 25.3 µM and the GI50 [5] was 0.113 µM. For the same molecule, the TGI [5] was 9.18 µM, the GI50 [6] was 0.464 µM and the TGI [6] was 40.5 µM. For the same molecule, the GI50 [7] was 0.33 µM, the TGI [7] was 14.4 µM and the GI50 [8] was 0.326 µM. The TGI [8] was > 36.3 µM, the GI50 [9] was 0.237 µM and the GI50 [10] was 0.179 µM. The TGI [10] was 0.575 µM.

In the case of Cc1cccc(NC(=O)c2sc3nc4c(cc3c2N)C(=O)CCC4)c1, the GI50 [1] is reported as 0.156 µM, the TGI [1] is reported as > 100 µM and the GI50 [2] is reported as 0.368 µM. The TGI [2] was > 100 µM, the GI50 [3] was 0.0656 µM and the TGI [3] was 0.801 µM. For the same molecule, the GI50 [4] was 0.54 µM, the TGI [4] was > 100 µM and the GI50 [5] was 0.194 µM. The TGI [5] was > 47.6 µM, the GI50 [6] was 1.48 µM and the TGI [6] was > 58.5 µM. For the same molecule, the GI50 [7] was 0.223 µM, the TGI [7] was > 20.1 µM and the GI50 [8] was 0.333 µM. The TGI [8] was > 100 µM, the GI50 [9] was 0.259 µM and the TGI [9] was > 49.8 µM. For the same molecule, the GI50 [10] was 0.179 µM and the TGI [10] was > 34.6 µM.

CCCCCCN(CCCCCC)C(=S)N/N=C(\C)c1ccccn1 gave a TGI [1] of 3.4 µM, a TGI [2] of 2.68 µM and a TGI [3] of 9.29 µM. The TGI [4] was 9.03 µM, the TGI [5] was 3.19 µM and the TGI [6] was 2.17 µM. The TGI [7] was 4.29 µM, the TGI [8] was 2.39 µM and the TGI [9] was 4.27 µM. It also gave a TGI [10] of 3.29 µM.

c1ccc(-c2[nH]ncc2-c2ccnc(-c3ccc(OCCn4ccnc4)cc3)c2)nc1 was tested, and the GI50 [1] was 22 µM, the TGI [1] was > 25 µM and the GI50 [2] was > 25 µM. The TGI [2] was > 25 µM, the GI50 [3] was > 25 µM and the TGI [3] was > 25 µM. For the same molecule, the GI50 [4] was > 25 µM, the TGI [4] was > 25 µM and the GI50 [5] was > 25 µM. For the same molecule, the TGI [5] was > 25 µM, the GI50 [6] was > 25 µM and the TGI [6] was > 25 µM. The GI50 [7] was > 25 µM, the TGI [7] was > 25 µM and the GI50 [8] was > 25 µM. The TGI [8] was > 25 µM, the GI50 [9] was > 25 µM and the TGI [9] was > 25 µM. The GI50 [10] was > 25 µM and the TGI [10] was > 25 µM.

In the case of Cn1nccc1Nc1nccc(-c2ccn([C@H](CO)c3ccc(Cl)c(F)c3)c(=O)c2)n1, the GI50 [1] is reported as 21.3 µM, the TGI [1] is reported as > 100 µM and the GI50 [2] is reported as 34.3 µM. For the same molecule, the TGI [2] was > 100 µM, the GI50 [3] was 1.07 µM and the TGI [3] was 15.3 µM. The GI50 [4] was 0.588 µM, the TGI [4] was 23.7 µM and the GI50 [5] was 76.3 µM. The TGI [5] was > 100 µM, the GI50 [6] was 25 µM and the TGI [6] was > 100 µM. For the same molecule, the GI50 [7] was 0.17 µM, the TGI [7] was > 100 µM and the GI50 [8] was 2.79 µM. The TGI [8] was 21.1 µM, the GI50 [9] was > 100 µM and the TGI [9] was > 100 µM. The GI50 [10] was 0.0871 µM and the TGI [10] was > 72.2 µM.

In the case of CNCc1cccc2c1OCCOCCOCCN(C)S(=O)(=O)c1ccc(cc1)-c1cnc(N)c(n1)C(=O)N2, the GI50 [1] is reported as 1.77 µM, the TGI [1] is reported as 7.78 µM and the GI50 [2] is reported as 0.98 µM. For the same molecule, the TGI [2] was 17.9 µM, the GI50 [3] was 0.133 µM and the TGI [3] was 4.04 µM. It also gave a GI50 [4] of 15.5 µM, a TGI [4] of 30.3 µM and a GI50 [5] of 3.35 µM. It also gave a TGI [5] of 13.3 µM, a GI50 [6] of 0.468 µM and a TGI [6] of 2.21 µM. For the same molecule, the GI50 [7] was 1.08 µM, the TGI [7] was 4.92 µM and the GI50 [8] was 1.19 µM. The TGI [8] was 3.12 µM, the GI50 [9] was 14.3 µM and the TGI [9] was 32.6 µM. It also gave a GI50 [10] of 1.11 µM and a TGI [10] of 3.4 µM.

In the case of Cc1c(C(=N)C(C#N)C#N)c(=N)oc2c1ccc1ccccc12, the GI50 [1] is reported as 13.4 µM, the TGI [1] is reported as 72.5 µM and the GI50 [2] is reported as 7.51 µM. The TGI [2] was > 100 µM, the GI50 [3] was 9.83 µM and the TGI [3] was 96 µM. For the same molecule, the GI50 [4] was 18 µM, the TGI [4] was 39.3 µM and the GI50 [5] was 33.9 µM. The TGI [5] was > 100 µM, the GI50 [6] was 23.1 µM and the TGI [6] was > 100 µM. For the same molecule, the GI50 [7] was 20.5 µM, the TGI [7] was 71.1 µM and the GI50 [8] was 17.6 µM. The TGI [8] was > 100 µM, the GI50 [9] was 25.2 µM and the TGI [9] was > 100 µM. The GI50 [10] was 23.9 µM and the TGI [10] was > 100 µM.
